According to the NIST ThermoML archive (doi:10.1021/acs.jced.6b00360):
Numbers after ± are expanded uncertainties.

Conditions: Liquid, Vibrating tube method

## C=CCCCCCCCCC(=O)OC [methyl 10-undecenoate]
280.15 K, 100 kPa
  mass density: 897.46 ± 5.7 kg/m3
280.15 K, 40000 kPa
  mass density: 914.37 ± 5.8 kg/m3
293.15 K, 100 kPa
  mass density: 886.83 ± 5.6 kg/m3
293.15 K, 40000 kPa
  mass density: 906.75 ± 5.8 kg/m3
303.15 K, 100 kPa
  mass density: 878.63 ± 5.5 kg/m3
303.15 K, 40000 kPa
  mass density: 895.63 ± 5.7 kg/m3
313.15 K, 100 kPa
  mass density: 870.71 ± 5.5 kg/m3
313.15 K, 40000 kPa
  mass density: 888.48 ± 5.7 kg/m3
323.15 K, 100 kPa
  mass density: 862.33 ± 5.4 kg/m3
323.15 K, 40000 kPa
  mass density: 881.75 ± 5.6 kg/m3
333.15 K, 100 kPa
  mass density: 854.49 ± 5.3 kg/m3
333.15 K, 40000 kPa
  mass density: 874.61 ± 5.6 kg/m3
343.15 K, 100 kPa
  mass density: 845.8 ± 5.3 kg/m3
352.15 K, 100 kPa
  mass density: 838.42 ± 5.2 kg/m3

## COC(=O)CCCCCCCCCCC(=O)OC [dimethyl dodecanoate]
313.15 K, 101.33 kPa
  mass density: 959.4 ± 3.9 kg/m3
323.15 K, 101.33 kPa
  mass density: 951 ± 3.9 kg/m3
333.15 K, 101.33 kPa
  mass density: 943.1 ± 3.9 kg/m3
343.15 K, 101.33 kPa
  mass density: 934.4 ± 3.8 kg/m3
352.15 K, 101.33 kPa
  mass density: 927 ± 3.8 kg/m3
